Test results from publication PMC4335062, “Data-Driven Prediction and Design of bZIP Coiled-Coil Interactions” (PLoS Computational Biology, 2015).
Read-outs that look alike come from different tables or passages of the source. Where no end group is shown, it is not given here.

Assays:
Assay in all cases: Direct-binding FRET assay
ATF5 = molecular target: T1, ATF5 (Homo sapiens, UniProt Q9Y2D1); settings: Kd
T1 construct: made in house
T1 sequence (Q9Y2D1 208-271 limits assumed): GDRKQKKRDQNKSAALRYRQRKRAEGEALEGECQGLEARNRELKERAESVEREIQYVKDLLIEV
Summary of the method: (§1)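 2-fold acceptor titration in 1 mM TCEP-HCl (4 μM stock); donor fluorescence read. Kd fitted by simulating homo/heterodimer equilibria; fits required ≥15% donor signal change over 0–1000 nM acceptor, else "NS".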

FOSL1 = molecular target: T2, FOSL1 (Homo sapiens, UniProt P15407)
T2 construct: made in house
T2 sequence (P15407 105-168 limits assumed): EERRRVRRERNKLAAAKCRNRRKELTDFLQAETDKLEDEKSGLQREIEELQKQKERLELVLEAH
Summary of the method: as §1

NFIL3 = molecular target: T3, NFIL3 (Homo sapiens, UniProt Q16649)
T3 construct: made in house
T3 sequence (Q16649 73-136 limits assumed): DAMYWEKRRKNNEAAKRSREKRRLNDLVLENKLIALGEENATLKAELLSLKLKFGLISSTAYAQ
Summary of the method: as §1

HLF = molecular target: T4, HLF (Homo sapiens, UniProt Q16534)
T4 construct: made in house
T4 sequence (Q16534 225-288 limits assumed): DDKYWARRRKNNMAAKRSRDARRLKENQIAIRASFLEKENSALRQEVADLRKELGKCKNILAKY
Summary of the method: as §1

CREBZF = molecular target: T5, CREBZF (Homo sapiens, UniProt Q9NS37)
T5 construct: made in house
T5 sequence (Q9NS37 204-267 limits assumed): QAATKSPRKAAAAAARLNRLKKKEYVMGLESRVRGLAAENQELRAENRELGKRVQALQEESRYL
Summary of the method: as §1

NFE2L1 = NFE2L1 (Homo sapiens, UniProt Q14494); set-up: made in house; settings: Kd, mean or single
Protocol: (§2) The direct binding assay was performed manually in 384-well plates and is similar to a previously described assay. Wells were filled with 20 μL of 1 mM TCEP-HCl. A 4 μM stock of acceptor protein was made fresh in 1 mM TCEP-HCl, and 20 μL was titrated in 2-fold dilutions over the wells. […] The direct-binding FRET data were fit as previously described. Briefly, the Kd of the designed peptide homodimer was experimentally determined and used with previously determined target homodimer Kd values to determine the heterodimer Kd. The homodimer Kd values used for the human bZIPs were from; experiments done by […] et al. used the same protein constructs for the human bZIP proteins, the same buffer conditions, and the same assay. The fitting used a system of ordinary differential equations to describe the concentrations of homo and heterodimers formed by the donor (D) and acceptor (A) as a function of the heterodimer Kd. MATLAB was used to simulate the binding experiment for different Kd values, and the value that gave the best agreement between simulation and experiment was assigned. A minimum 15% change in the donor fluorescence upon titrating the acceptor peptide from 0 to 1000 nM was required for a fit to be attempted. If this minimum was not met, the interaction was classified as “NS” for no signal change. […] These interactions were marked “AS” to indicate anomalous signal. We attributed this to interactions between the peptides, the dyes and the walls of the assay plates at low concentrations. These curves could not be fit, given their unusual shapes at low concentrations of acceptor. For such curves, we removed the first five points and re-fit the data. […] One example of this is increasing concentrations of acceptor causing an increase in donor fluorescence.

BACH2 = BACH2 (Homo sapiens, UniProt Q9BYV9); set-up: made in house; settings: Kd
Protocol: as §2

ATF6 = ATF6 (Homo sapiens, UniProt P18850); set-up: made in house
Protocol: as §2

MAFB = MAFB (Homo sapiens, UniProt Q9Y5Q3); set-up: made in house; settings: Kd, mean or single
Protocol: as §2

MAF = MAF (Homo sapiens, UniProt O75444); set-up: made in house
Protocol: as §2

BACH1 = BACH1 (Homo sapiens, UniProt O14867); set-up: made in house
Protocol: as §2

[1] = 4°C, C-terminal fluorescein design as donor, TAMRA target titrated
[2] = 4°C, C-terminal rhodamine design, mean or single
[3] = 4°C, N-terminal rhodamine design, mean or single
[4] = 23°C, C-terminal fluorescein design as donor, TAMRA target titrated
[5] = 23°C, C-terminal rhodamine design, mean or single
[6] = 23°C, N-terminal rhodamine design, mean or single
[7] = 37°C, C-terminal fluorescein design as donor, TAMRA target titrated
[8] = 37°C, C-terminal rhodamine design, mean or single
[9] = 37°C, N-terminal rhodamine design, mean or single
[10] = 4°C, C-terminal rhodamine design
[11] = 4°C, N-terminal rhodamine design
[12] = 23°C, C-terminal rhodamine design
[13] = 23°C, N-terminal rhodamine design
[14] = 37°C, C-terminal rhodamine design
[15] = 37°C, N-terminal rhodamine design

MAF, sequence (O75444 288-351 limits assumed): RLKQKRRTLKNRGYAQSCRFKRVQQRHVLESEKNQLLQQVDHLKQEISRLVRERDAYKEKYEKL
BACH1, sequence (O14867 557-620 limits assumed): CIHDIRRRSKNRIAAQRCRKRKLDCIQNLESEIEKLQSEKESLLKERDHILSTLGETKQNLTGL
ATF6, sequence (P18850 306-369 limits assumed): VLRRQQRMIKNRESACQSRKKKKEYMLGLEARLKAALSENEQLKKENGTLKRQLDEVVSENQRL
BACH2, sequence (Q9BYV9 646-709 limits assumed): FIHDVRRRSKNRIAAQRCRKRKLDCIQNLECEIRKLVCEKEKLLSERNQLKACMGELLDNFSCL
NFE2L1, sequence (Q14494 654-717 limits assumed): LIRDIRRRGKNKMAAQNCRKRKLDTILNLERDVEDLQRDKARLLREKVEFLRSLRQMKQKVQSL

SIAATLEKEEANLEKMNKKLAAEIESLLKEKDKLESVLNYHE [JUN-d1]
Kd (ATF5; [1]): > 1000 nM | Kd (ATF5; [2]): > 5000 nM | Kd (ATF5; [3]): > 1000 nM | Kd (ATF5; [4]): > 1000 nM | Kd (ATF5; [5]): > 1000 nM | Kd (ATF5; [6]): > 1000 nM | Kd (ATF5; [7]): > 1000 nM | Kd (ATF5; [8]): > 1000 nM | Kd (ATF5; [9]): > 1000 nM | Kd (FOSL1): > 1000 nM | Kd (FOSL1; [2]): > 1000 nM | Kd (FOSL1; [3]): > 1000 nM | Kd (FOSL1; [5]): > 1000 nM | Kd (FOSL1; [6]): > 1000 nM | Kd (FOSL1; [9]): > 1000 nM | Kd (NFIL3): > 1000 nM | Kd (NFIL3; [1]): > 1000 nM | Kd (NFIL3; [2]): > 1000 nM | Kd (NFIL3; [3]): > 1000 nM | Kd (NFIL3; [4]): > 1000 nM | Kd (NFIL3; [5]): > 1000 nM | Kd (NFIL3; [6]): > 1000 nM | Kd (NFIL3; [7]): > 1000 nM | Kd (NFIL3; [9]): > 1000 nM | Kd (HLF): > 1000 nM | Kd (HLF; [1]): > 1000 nM | Kd (HLF; [2]): > 1000 nM | Kd (HLF; [3]): > 1000 nM | Kd (HLF; [4]): > 1000 nM | Kd (HLF; [5]): > 1000 nM | Kd (HLF; [6]): > 1000 nM | Kd (HLF; [7]): > 1000 nM | Kd (HLF; [9]): > 1000 nM | Kd (CREBZF): > 1000 nM | Kd (CREBZF; [1]): > 1000 nM | Kd (CREBZF; [2]): > 1000 nM | Kd (CREBZF; [3]): > 1000 nM | Kd (CREBZF; [4]): > 1000 nM | Kd (CREBZF; [5]): > 1000 nM | Kd (CREBZF; [6]): > 1000 nM | Kd (CREBZF; [7]): > 1000 nM | Kd (CREBZF; [9]): > 1000 nM | Kd (NFE2L1; [10]): > 5000 nM | Kd (NFE2L1; [11]): > 1000 nM | Kd (NFE2L1; [12]): > 5000 nM | Kd (NFE2L1; [13]): > 1000 nM | Kd (NFE2L1; [14]): > 5000 nM | Kd (NFE2L1; [15]): > 1000 nM | Kd (BACH2; [1]): > 1000 nM | Kd (BACH2; [2]): > 5000 nM | Kd (BACH2; [3]): > 1000 nM | Kd (BACH2; [4]): > 1000 nM | Kd (BACH2; [5]): > 1000 nM | Kd (BACH2; [6]): > 1000 nM | Kd (BACH2; [7]): > 1000 nM | Kd (BACH2; [8]): > 1000 nM | Kd (BACH2; [9]): > 1000 nM | Kd (ATF6): > 1000 nM | Kd (ATF6; [1]): > 1000 nM | Kd (ATF6; [2]): > 1000 nM | Kd (ATF6; [3]): > 1000 nM | Kd (ATF6; [4]): > 1000 nM | Kd (ATF6; [5]): > 1000 nM | Kd (ATF6; [6]): > 1000 nM | Kd (ATF6; [7]): > 1000 nM | Kd (ATF6; [9]): > 1000 nM | Kd (MAFB; [10]): 326 nM | Kd (MAFB; [11]): > 1000 nM | Kd (MAFB; [12]): > 1000 nM | Kd (MAFB; [13]): > 1000 nM | Kd (MAFB; [14]): > 1000 nM | Kd (MAFB; [15]): > 1000 nM | Kd (MAF): > 1000 nM | Kd (MAF; [2]): > 1000 nM | Kd (MAF; [3]): > 1000 nM | Kd (MAF; [5]): > 1000 nM | Kd (MAF; [6]): > 1000 nM | Kd (MAF; [9]): > 1000 nM | Kd (BACH1): > 1000 nM | Kd (BACH1; [1]): > 1000 nM | Kd (BACH1; [2]): > 1000 nM | Kd (BACH1; [3]): > 1000 nM | Kd (BACH1; [4]): > 1000 nM | Kd (BACH1; [5]): > 1000 nM | Kd (BACH1; [6]): > 1000 nM | Kd (BACH1; [7]): > 1000 nM | Kd (BACH1; [9]): > 1000 nM
